Our source for the IC50 values is patent US11505548B2, “Heterocyclic compounds and their use for treatment of helminthic infections and diseases” (Celgene Corporation, priority 2019, dated 2022).

This assay deals with microfilariae of Dirofilaria immitis. The assay can be described thus: Dirofilaria immitis, Microfilaria (DiMF) Assay. In kind it is cell-based. As to conditions: read-out: D. immitis activity level (IC50 or MED). As to the method:
Heartworm Screen Dirofilaria immitis (D. immitis)
Dirofilaria immitis, Microfilaria (DiMF) Assay.
Compounds were dissolved and serially diluted in DMSO. Aliquots were spotted to the empty wells of assay plates. Media and microfilariae of Dirofilaria immitis were added to each well to dilute the test compounds to the desired concentrations. Assay plates were incubated for approximately 72 hours, and the larvae in each well were observed microscopically for drug effect. Microfilariae in each well were assessed subjectively for survival or paralysis, and results were reported as Minimum Effective Dose (MED).
Active and selective (DiL4 vs. DiMF potency) example compounds were subsequently evaluated in heartworm positive dog studies to correlate the in vitro selectivity profile with in vivo effects on circulating microfilariae.
Consider `Cc1cccnc1Nc1nc(-c2ccc(O[C@@H]3CCN(C4CC4)C[C@H]3F)cn2)ns1` [Compound 91, 3-(5-((3R,4R)-1-cyclopropyl-3-fluoro-piperidin-4-yloxy)pyridin-2-yl)-N-(3-methylpyridin-2-yl)-1,2,4-thiadiazol-5-amine], for which the IC50 is 0.5 to 5 µM.

As to `Cc1cccnc1Nc1nc(-c2ncc(OC3CC3)cc2C(F)(F)F)ns1` [Compound 93, 3-(5-cyclo-propoxy-3-(trifluoromethyl)pyridin-2-yl)-N-(3-methyl-pyridin-2-yl)-1,2,4-thiadiazol-5-amine], the IC50 lay in the range of 0.5 to 5 µM.

Regarding `CC(C)Oc1cccnc1-c1nsc(Nc2cc(N3CCCC3)ccn2)n1` [Compound 94, 3-(3-isopropoxy-pyridin-2-yl)-N-(4-(pyrrolidin-1-yl)pyridin-2-yl)-1,2,4-thiadiazol-5-amine], the 50% inhibitory concentration (IC50) was in the range of 0.5 to 5 µM.

As to `CC(C)c1cnc(Nc2nc(-c3ccc(OC4CC4)cn3)ns2)cc1C(F)(F)F` [Compound 95, 3-(5-cyclopropoxy-pyridin-2-yl)-N-(5-isopropyl-4-(trifluoromethyl)pyridin-2-yl)-1,2,4-thiadiazol-5-amine], the IC50 was less than 0.2 µM.

In the case of `CC(C)c1cnc(Nc2nc(-c3cc(OC4CC4)ccn3)ns2)cc1C(F)(F)F` [Compound 96, 3-(4-cycloprop-oxypyridin-2-yl)-N-(5-isopropyl-4-(trifluoromethyl)pyridin-2-yl)-1,2,4-thiadiazol-5-amine], the IC50 is less than 0.2 µM.

As to `CC(C)c1cnc(Nc2nc(-c3ncccc3OC3CC3)ns2)cc1C(F)(F)F` [Compound 97, 3-(3-cycloprop-oxypyridin-2-yl)-N-(5-isopropyl-4-(trifluoromethyl)pyridin-2-yl)-1,2,4-thiadiazol-5-amine], the IC50 is less than 0.2 µM.

For `Cc1cccnc1Nc1nc(-c2cc(C(F)(F)F)c(OC3CC3)cn2)ns1` [Compound 102, 3-(5-cyclo-propoxy-4-(trifluoromethyl)pyridin-2-yl)-N-(3-methyl-pyridin-2-yl)-1,2,4-thiadiazol-5-amine], the half-maximal inhibitory concentration (IC50) is 0.2 to 0.5 µM.

In the case of `O=C(NC1CC(F)(F)C1)c1ccc(Nc2nc(-c3ccc(OC4CC4)cn3)ns2)nc1` [Compound 107, 6-(3-(5-cyclo-propoxypyridin-2-yl)-1,2,4-thiadiazol-5-ylamino)-N-(3,3-difluoro-cyclobutyl) nicotinamide], the IC50 fell in the range of 0.5 to 5 µM.

For the compound `CNc1cccnc1Nc1nc(-c2ccc(OC(C)C)cn2)ns1` [Compound 108, N2-(3-(5-isopropoxypyridin-2-yl)-1,2,4-thiadiazol-5-yl)-N3-methyl-pyridine-2,3-diamine], the IC50 lay within 0.2 to 0.5 µM.

Take `Cc1cccnc1Nc1nc(-c2cc(C(F)(F)F)c(OCC3CC3)cn2)ns1` [Compound 110, 3-(5-(cyclo-propylmethoxy)-4-(trifluoromethyl)pyridin-2-yl)-N-(3-methyl-pyridin-2-yl)-1,2,4-thiadiazol-5-amine]: the IC50 is 0.2 to 0.5 µM.

`CC(C)Oc1ccc(-c2nsc(Nc3ncccc3C(C)C)n2)nc1` [Compound 115, 3-(5-isopropoxy-pyridin-2-yl)-N-(3-isopropyl-pyridin-2-yl)-1,2,4-thiadiazol-5-amine]: the IC50 is less than 0.2 µM.

Take `CC(C)Oc1ccc(-c2nsc(Nc3ncccc3N3CCCC3)n2)nc1` [Compound 116, 3-(5-isopropoxy-pyridin-2-yl)-N-(3-(pyrrolidin-1-yl)pyridin-2-yl)-1,2,4-thiadiazol-5-amine]: the IC50 was in the range of 0.5 to 5 µM.

Turning to `CN(C)c1cccnc1Nc1nc(-c2ccc(OCC3CC3)cn2)ns1` [Compound 118, N2-(3-(5-(cyclopropyl-methoxy)pyridin-2-yl)-1,2,4-thiadiazol-5-yl)-N3,N3-dimethyl-pyridine-2,3-diamine], the IC50 was 0.5 to 5 µM.

As to `CN(C)c1cccnc1Nc1nc(-c2ccc(OC(F)F)cn2)ns1` [Compound 120, N2-(3-(5-(difluoromethoxy)pyridin-2-yl)-1,2,4-thiadiazol-5-yl)-N3,N3-dimethyl-pyridine-2,3-diamine], the IC50 was in the range of 0.5 to 5 µM.

`CN(C)c1cccnc1Nc1nc(-c2ccc(F)cn2)ns1` [Compound 121, N2-(3-(5-fluoro-pyridin-2-yl)-1,2,4-thiadiazol-5-yl)-N3,N3-dimethylpyridine-2,3-diamine]: the IC50 fell in the range of 0.5 to 5 µM.

Take `Cc1cccnc1Nc1nc(-c2cnc(OC(C)C)cn2)ns1` [Compound 124, 3-(5-isopropoxy-pyrazin-2-yl)-N-(3-methyl-pyridin-2-yl)-1,2,4-thiadiazol-5-amine]: the IC50 lay in the range of 0.5 to 5 µM.

As for `CC(C)c1cccnc1Nc1nc(-c2ccc(OC(F)F)cn2)ns1` [Compound 127, 3-(5-(difluoro-methoxy)pyridin-2-yl)-N-(3-isopropyl-pyridin-2-yl)-1,2,4-thiadiazol-5-amine], the IC50 fell in the range of 0.5 to 5 µM.

With `COc1cccnc1Nc1nc(-c2cc(C(F)(F)F)c(OC3CC3)cn2)ns1` [Compound 134, 3-(5-cyclo-propoxy-4-(trifluoromethyl)pyridin-2-yl)-N-(3-methoxy-pyridin-2-yl)-1,2,4-thiadiazol-5-amine], the IC50 was in the range of 0.5 to 5 µM.

On to `Cc1nccnc1Nc1nc(-c2ccc(OC(C)C)cn2)ns1` [Compound 135, 3-(5-isoprop-oxypyridin-2-yl)-N-(3-methyl-pyrazin-2-yl)-1,2,4-thia-diazol-5-amine], for which the IC50 was 0.2 to 0.5 µM.

With `COc1cccnc1Nc1nc(-c2ccc(OC3CC(F)(F)C3)cn2)ns1` [Compound 137, 3-(5-(3,3-difluorocyclo-butoxy)pyridin-2-yl)-N-(3-methoxypyridin-2-yl)-1,2,4-thiadiazol-5-amine], the IC50 was 0.5 to 5 µM.

On to `CC(C)Oc1ccc(-c2nsc(Nc3nccnc3N(C)C)n2)nc1` [Compound 144, N2-(3-(5-isoprop-oxypyridin-2-yl)-1,2,4-thiadiazol-5-yl)-N3,N3-dimethyl-pyrazine-2,3-diamine], for which the IC50 lay in the range of 0.2 to 0.5 µM.

Take `Cc1cccnc1Nc1nc(-c2cc(OC(C)C)c(C(F)(F)F)cn2)ns1` [Compound 152, 3-(4-isoprop-oxy-5-(trifluoromethyl)pyridin-2-yl)-N-(3-methylpyridin-2-yl)-1,2,4-thia-diazol-5-amine]: the IC50 is 0.2 to 0.5 µM.

Take `CC(C)Oc1ccc(-c2nsc(Nc3ncccc3N(C)C)n2)nn1` [Compound 155, N2-(3-(6-isopropoxy-pyridazin-3-yl)-1,2,4-thiadiazol-5-yl)-N3,N3-dimethyl-pyridine-2,3-diamine]: the half-maximal inhibitory concentration (IC50) was in the range of 0.5 to 5 µM.

`CC(C)Oc1cnc(-c2nsc(Nc3ncccc3N(C)C)n2)cc1C(F)(F)F` [Compound 156, N2-(3-(5-isopropoxy-4-(trifluoromethyl)pyridin-2-yl)-1,2,4-thiadiazol-5-yl)-N3,N3-dimethyl-pyridine-2,3-diamine]: the IC50 was 0.2 to 0.5 µM.

In the case of `CC(=O)N(C)c1cccnc1Nc1nc(-c2ccc(OC(C)C)cn2)ns1` [Compound 157, N-(2-(3-(5-isopropoxy-pyridin-2-yl)-1,2,4-thiadiazol-5-ylamino)pyridin-3-yl)-N-methyl-acetamide], the IC50 lay within 0.5 to 5 µM.

`CC(=O)Nc1cccnc1Nc1nc(-c2ccc(OC(C)C)cn2)ns1` [Compound 161, N-(2-(3-(5-isopropoxy-pyridin-2-yl)-1,2,4-thiadiazol-5-ylamino)pyridin-3-yl)acetamide]: the IC50 fell in the range of 0.5 to 5 µM.

For `COc1cc(C(C)C)cnc1Nc1nc(-c2ccc(OC(C)C)cn2)ns1` [Compound 166, 3-(5-isopropoxy-pyridin-2-yl)-N-(5-isopropyl-3-methoxypyridin-2-yl)-1,2,4-thiadiazol-5-amine], the IC50 is 0.5 to 5 µM.

Regarding `COc1cccnc1Nc1nc(-c2cc(C(F)(F)F)c(OC(C)C)cn2)ns1` [Compound 167, 3-(5-isopropoxy-4-(trifluoromethyl)pyridin-2-yl)-N-(3-methoxypyridin-2-yl)-1,2,4-thiadiazol-5-amine], the IC50 fell in the range of 0.5 to 5 µM.

Take `CC(C)Oc1cnc(-c2nsc(Nc3ncccc3C(C)C)n2)cc1C(F)(F)F` [Compound 168, 3-(5-isoprop-oxy-4-(trifluoromethyl)pyridin-2-yl)-N-(3-isopropyl-pyridin-2-yl)-1,2,4-thiadiazol-5-amine]: the 50% inhibitory concentration (IC50) lay within 0.2 to 0.5 µM.

For `CC(C)Oc1ccc(-c2nsc(Nc3ncccc3N(C)C(=O)C3CC3)n2)nc1` [Compound 170, N-(2-(3-(5-isopropoxy-pyridin-2-yl)-1,2,4-thiadiazol-5-ylamino)pyridin-3-yl)-N-methylcyclo-propanecarbox-amide], the IC50 was 0.5 to 5 µM.

For `CC(C)Oc1ccc(-c2nsc(Nc3ncccc3N(C)C(=O)C3CCC3)n2)nc1` [Compound 171, N-(2-(3-(5-isopropoxy-pyridin-2-yl)-1,2,4-thiadiazol-5-ylamino)pyridin-3-yl)-N-methylcyclo-butane-carboxamide], the IC50 is 0.5 to 5 µM.

Consider `CC(C)Oc1ccc(-c2nsc(Nc3ncccc3N(C)C(=O)C3CCCC3)n2)nc1` [Compound 172, N-(2-(3-(5-isopropoxy-pyridin-2-yl)-1,2,4-thiadiazol-5-ylamino)pyridin-3-yl)-N-methylcyclo-pentane-carboxamide], for which the IC50 lay in the range of 0.2 to 0.5 µM.

Take `COc1ccnc(-c2nsc(Nc3ccc(C(F)(F)F)cn3)n2)c1` [Compound 176, 3-(4-methoxy-pyridin-2-yl)-N-(5-(trifluoromethyl)pyridin-2-yl)-1,2,4-thiadiazol-5-amine]: the half-maximal inhibitory concentration (IC50) was less than 0.2 µM.

Take `COc1ccnc(-c2nsc(Nc3ccc(C(C)C)cn3)n2)c1` [Compound 177, N-(5-isopropyl-pyridin-2-yl)-3-(4-methoxy-pyridin-2-yl)-1,2,4-thiadiazol-5-amine]: the IC50 is less than 0.2 µM.

For the compound `CC(C)Oc1ccc(-c2nsc(Nc3ncccc3N3CCCC3=O)n2)nc1` [Compound 178, 1-(2-(3-(5-isopropoxy-pyridin-2-yl)-1,2,4-thiadiazol-5-ylamino)pyridin-3-yl)pyrrolidin-2-one], the IC50 lay in the range of 0.5 to 5 µM.
